Source: US20060069132A1, “Azolecarboxamide herbicides” (priority 2004, published 2006)
Read-outs that look alike come from different tables or passages of the source.

What was measured:
velvetleaf [1] = assay: Test C pre-/postemergence herbicide test; type: in vivo, Abutilon theophrasti; details: Abutilon theophrasti, pre-emergence, read-out: Plant response rating, Velvetleaf
Outline: (§1)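 Emerged plants at the 1- to 4-leaf stage (2–18 cm), or freshly planted seeds, received test chemicals in a non-phytotoxic solvent mixture with surfactant. Response was visually scored against controls after 12 to 14 days in the greenhouse, on a 0 (no effect) to 100 (complete control) scale.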

morningglory = assay: Test A pre-/postemergence herbicide test; type: in vivo, Ipomoea spp.; details: Ipomoea, 240 h; for pest or weed control at 500 g/ha: 500 g ai/ha; for pest or weed control at 2000 g/ha: 2000 g ai/ha
Outline: (§2)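 Both application timings were run together: directed soil spray over freshly planted seeds in sandy loam, and runoff spray onto 2–10 cm seedlings. Evaluation after ~10 days in greenhouse used a 0–100 visual scale versus untreated controls.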

corn = assay: Test C pre-/postemergence herbicide test; type: in vivo, Zea mays; details: Zea mays, pre-emergence, 312 h
Outline: as §1

rice = assay: Test C flooded paddy test; type: in vivo, Oryza sativa; details: Oryza sativa
Outline: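 Postemergence sprays applied to plants 2 to 18 cm tall (1- to 4-leaf stage); paddy species grown to 2-leaf stage under flooding. After 12 to 14 days in greenhouse, visual rating versus untreated controls on 0–100 scale (0 no effect, 100 complete control).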

giant foxtail = assay: Test A pre-/postemergence herbicide test; type: in vivo, Setaria faberi; details: Setaria faberi, 240 h; for pest or weed control at 500 g/ha: 500 g ai/ha; for pest or weed control at 2000 g/ha: 2000 g ai/ha
Outline: as §2

lambsquarters = assay: Test C pre-/postemergence herbicide test; type: in vivo, Chenopodium album; details: Chenopodium album, pre-emergence, read-out: Plant response rating, Lambsquarters
Outline: as §1

ducksalad = assay: Test C flooded paddy test; type: in vivo, Heteranthera limosa; details: Heteranthera limosa
velvetleaf [2] = assay: Test A pre-/postemergence herbicide test; type: in vivo, Abutilon theophrasti; details: Abutilon theophrasti, 240 h; for pest or weed control at 500 g/ha: 500 g ai/ha; for pest or weed control at 2000 g/ha: 2000 g ai/ha
Outline: as §2

pigweed = assay: Test C pre-/postemergence herbicide test; type: in vivo, Amaranthus retroflexus; details: Amaranthus retroflexus, pre-emergence, read-out: Plant response rating, Pigweed
Outline: as §1

kochia = assay: Test C pre-/postemergence herbicide test; type: in vivo, Kochia scoparia; details: Bassia scoparia, pre-emergence, read-out: Plant response rating, Kochia
Outline: as §1

Surinam grass = assay: Test C pre-/postemergence herbicide test; type: in vivo, Urochloa decumbens; details: Urochloa decumbens, pre-emergence, 312 h, read-out: Plant response rating, Surinam Grass
Outline: as §1

[3] = 62 g ai/ha, preemergence, scale 0 to 100
[4] = 500 g ai/ha, scale 0 to 100 (0 no effect, 100 complete control), visual, 12 to 14 days
[5] = 125 g ai/ha, scale 0 (no effect) to 100 (complete control), visual, 12 to 14 days

## CCc1nn(C(C)(C)C)cc1C(=O)Nc1cc(C(=O)N(C)C)ccc1F [Compound 222, N-[5-[(dimethylamino)carbonyl]-2-fluorophenyl]-1-(1,1-dimethylethyl)-3-ethyl-1H-pyrazole-4-carboxamide]
Velvetleaf [1]; [3]
  pest or weed control at 62 g/ha: 50%
Velvetleaf [1]; 250 g ai/ha, scale 0-100
  pest or weed control at 250 g/ha: 100%
Velvetleaf [1]; [4]
  pest or weed control at 500 g/ha: 100%
morningglory; post-emergence, Postemergence, 0 to 100 scale, 0 no effect, 100 complete control, read-out: Morningglory plant response rating
  pest or weed control at 500 g/ha: 80%
morningglory; post-emergence, Postemergence, 0 to 100 scale, 0 no effect, 100 complete control, read-out: Plant response rating, Morningglory
  pest or weed control at 2000 g/ha: 95%
morningglory; pre-emergence, Preemergence, visual rating, 0 to 100 scale (0 no effect, 100 complete control), read-out: Morningglory plant response rating
  pest or weed control at 2000 g/ha: 100%
morningglory; pre-emergence, preemergence, visual injury, 0 to 100 scale (0 no effect, 100 complete control), read-out: Morningglory plant response rating
  pest or weed control at 500 g/ha: 75%
corn; [3]
  Corn plant response rating (crop injury, 0 = no effect, 100 = complete kill) at 62 g/ha: 0%
corn; [5]
  Corn plant response rating (crop injury, 0 = no effect, 100 = complete kill) at 125 g/ha: 20%
corn; 250 g ai/ha, scale 0-100
  Corn plant response rating (crop injury, 0 = no effect, 100 = complete kill) at 250 g/ha: 60%
corn; [4]
  Corn plant response rating (crop injury, 0 = no effect, 100 = complete kill) at 500 g/ha: 100%
rice; 62 g ai/ha, scale 0 to 100 (0 no effect, 100 complete control), read-out: Rice plant response rating
  plant injury at 62 g/ha: 30%
rice; 125 g ai/ha, scale 0 to 100 (0 no effect, 100 complete control), read-out: Rice plant response rating
  plant injury at 125 g/ha: 70%
rice; 250 g ai/ha, scale of 0 to 100, 0 is no effect, 100 is complete control, read-out: Rice plant response rating
  plant injury at 250 g/ha: 85%
rice; 500 g ai/ha, visual rating after 12 to 14 days, scale 0 to 100 (0 no effect, 100 complete control), read-out: Plant response rating, Rice
  plant injury at 500 g/ha: 85%
Giant foxtail; post-emergence, Postemergence, 0 to 100 scale, 0 no effect, 100 complete control, read-out: Foxtail, Giant plant response rating
  pest or weed control at 500 g/ha: 65%
Giant foxtail; post-emergence, Postemergence, 0 to 100 scale, 0 no effect, 100 complete control, read-out: Plant response rating, Foxtail, Giant
  pest or weed control at 2000 g/ha: 85%
Giant foxtail; pre-emergence, Preemergence, visual rating, 0 to 100 scale (0 no effect, 100 complete control), read-out: Foxtail, Giant plant response rating
  pest or weed control at 2000 g/ha: 100%
Giant foxtail; pre-emergence, preemergence, visual injury, 0 to 100 scale (0 no effect, 100 complete control), read-out: Foxtail, Giant plant response rating
  pest or weed control at 500 g/ha: 95%
lambsquarters; [3]
  pest or weed control at 62 g/ha: 100%
lambsquarters; [5]
  pest or weed control at 125 g/ha: 100%
lambsquarters; 250 g ai/ha, scale 0-100
  pest or weed control at 250 g/ha: 100%
lambsquarters; [4]
  pest or weed control at 500 g/ha: 100%
ducksalad; 62 g ai/ha, scale 0 to 100 (0 no effect, 100 complete control), read-out: Ducksalad plant response rating
  pest or weed control at 62 g/ha: 70%
ducksalad; 125 g ai/ha, scale 0 to 100 (0 no effect, 100 complete control), read-out: Ducksalad plant response rating
  pest or weed control at 125 g/ha: 75%
ducksalad; 250 g ai/ha, scale of 0 to 100, 0 is no effect, 100 is complete control, read-out: Ducksalad plant response rating
  pest or weed control at 250 g/ha: 85%
ducksalad; 500 g ai/ha, visual rating after 12 to 14 days, scale 0 to 100 (0 no effect, 100 complete control), read-out: Plant response rating, Ducksalad
  pest or weed control at 500 g/ha: 95%
Velvetleaf [2]; post-emergence, Postemergence, 0 to 100 scale, 0 no effect, 100 complete control, read-out: Velvetleaf plant response rating
  pest or weed control at 500 g/ha: 80%
Velvetleaf [2]; post-emergence, Postemergence, 0 to 100 scale, 0 no effect, 100 complete control, read-out: Plant response rating, Velvetleaf
  pest or weed control at 2000 g/ha: 100%
Velvetleaf [2]; pre-emergence, Preemergence, visual rating, 0 to 100 scale (0 no effect, 100 complete control), read-out: Velvetleaf plant response rating
  pest or weed control at 2000 g/ha: 100%
Velvetleaf [2]; pre-emergence, preemergence, visual injury, 0 to 100 scale (0 no effect, 100 complete control), read-out: Velvetleaf plant response rating
  pest or weed control at 500 g/ha: 95%
pigweed; [3]
  pest or weed control at 62 g/ha: 100%
pigweed; [5]
  pest or weed control at 125 g/ha: 100%
pigweed; 250 g ai/ha, scale 0-100
  pest or weed control at 250 g/ha: 100%
pigweed; [4]
  pest or weed control at 500 g/ha: 100%
kochia; [3]
  pest or weed control at 62 g/ha: 90%
kochia; [5]
  pest or weed control at 125 g/ha: 100%
kochia; 250 g ai/ha, scale 0-100
  pest or weed control at 250 g/ha: 100%
kochia; [4]
  pest or weed control at 500 g/ha: 100%
Surinam grass; [3]
  pest or weed control at 62 g/ha: 80%
Surinam grass; 250 g ai/ha, scale 0-100
  pest or weed control at 250 g/ha: 100%
Surinam grass; [4]
  pest or weed control at 500 g/ha: 100%
